Source: US20090220648A1, “Nutritional additive for animals” (KEMIRA GROW HOW AB, priority 2005, published 2009)

Assay: Buffering capacity
Format: physicochemical

buffering capacity, mekvH+/kg sample	Compound
14850 mekvH+/kg sample	O=C([O-])[O-].[Ca+2] [CaCO3]
50 mekvH+/kg sample	O=S(=O)([O-])[O-].[Ca+2] [CaSO4]
